How the values were obtained:
pigweed = test: Test A pre-/postemergence herbicide test; assay type: in vivo, Amaranthus retroflexus; settings: for Plant response rating, Pigweed: 0 to 100 scale
Method in brief: (§1)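 Visual 0–100 ratings (100 = complete control) made about 10 days after treatment, greenhouse-held plants compared with untreated controls. Treatments: postemergence sprays on one- to two-leaf plants (2–10 cm tall) and preemergence directed soil sprays after planting in loam–sand, chemicals formulated in non-phytotoxic solvent containing surfactant.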

ryegrass, Italian = test: Test A pre-/postemergence herbicide test; assay type: in vivo, Lolium multiflorum; settings: for Plant response rating, Ryegrass, Italian: 0 to 100 scale
Method in brief: as §1

barnyardgrass [1] = test: Test A pre-/postemergence herbicide test; assay type: in vivo, Echinochloa crus-galli
Method in brief: as §1

rice = test: Test C flooded paddy test; assay type: in vivo, Oryza sativa; settings: Flood
Method in brief: (§2)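 Visual ratings from 0, no effect, to 100, complete control, were made against untreated controls after 13–15 greenhouse days. Compounds had gone straight into paddy water 3 cm above the soil, kept at that depth, on 2-leaf-stage plants.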

barnyardgrass [2] = test: Test C flooded paddy test; assay type: in vivo, Echinochloa crus-galli; settings: Flood
Method in brief: as §2

sedge, umbrella = test: Test C flooded paddy test; assay type: in vivo, Cyperus difformis; settings: Flood
Method in brief: as §2

giant foxtail = test: Test A pre-/postemergence herbicide test; assay type: in vivo, Setaria faberii; settings: for Plant response rating, Foxtail, Giant: 0 to 100 scale
Method in brief: as §1

kochia = test: Test A pre-/postemergence herbicide test; assay type: in vivo, Kochia scoparia; settings: for Plant response rating, Kochia: 0 to 100 scale
Method in brief: as §1

ragweed = test: Test A pre-/postemergence herbicide test; assay type: in vivo, Ambrosia elatior; settings: for Plant response rating, Ragweed: 0 to 100 scale
Method in brief: as §1

ducksalad = test: Test C flooded paddy test; assay type: in vivo, Heteranthera limosa; settings: Flood
Method in brief: as §2

wheat = test: Test A pre-/postemergence herbicide test; assay type: in vivo, Triticum aestivum; settings: Postemergence
Method in brief: as §1

corn = test: Test A pre-/postemergence herbicide test; assay type: in vivo, Zea mays; settings: Postemergence
Method in brief: as §1

galium = test: Test A postemergence herbicide test; assay type: in vivo, Galium aparine
Method in brief: (§3)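 Ratings compare treated with untreated plants roughly 10 days after a postemergence application made at the one- to two-leaf stage. Scoring uses 0–100, where 0 means no effect and 100 complete control.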

blackgrass = test: Test A postemergence herbicide test; assay type: in vivo, Alopecurus myosuroides
Method in brief: as §3

[3] = Postemergence, 125 g ai/ha, 0 no effect, 100 complete control
[4] = Preemergence, 125 g ai/ha, visual rating on 0 to 100 scale (0 no effect, 100 complete control)
[5] = 125 g ai/ha, scale of 0 to 100 where 0 is no effect and 100 is complete control, 13 to 15 days
[6] = 125 g ai/ha, 0 to 100 scale, 0 no effect, 100 complete control
[7] = 500 g ai/ha, 0 to 100 scale (0 no effect, 100 complete control)

O=C1NCC(c2cccc(C(F)(F)F)c2)C1C(=O)Nc1nnc(C(F)(F)F)s1 (racemic) [Compound 112]
0: Plant response rating, Pigweed (pigweed; [3]) | Pigweed plant response rating (0 to 100 scale, 0 is no effect, 100 is complete control) (pigweed; Postemergence, 500 g ai/ha) | Pigweed plant response rating (pigweed; [4]) | Plant response rating, Pigweed (pigweed; preemergence, 500 g ai/ha) | Plant response rating, Ryegrass, Italian (ryegrass, Italian; [3]) | Ryegrass, Italian plant response rating (0 to 100 scale, 0 is no effect, 100 is complete control) (ryegrass, Italian; Postemergence, 500 g ai/ha) | Ryegrass, Italian plant response rating (ryegrass, Italian; [4]) | Plant response rating, Ryegrass, Italian (ryegrass, Italian; preemergence, 500 g ai/ha) | Plant response rating, Barnyardgrass (barnyardgrass [1]; Postemergence, 125 g ai/ha, 0 to 100 scale, 0 no effect, 100 complete control) | Plant response rating, Barnyardgrass (barnyardgrass [1]; Postemergence, 500 g ai/ha, 0 to 100 scale (0 no effect, 100 complete control)) | Barnyardgrass plant response rating (barnyardgrass [1]; [4]) | Plant response rating, Barnyardgrass (barnyardgrass [1]; preemergence, 500 g ai/ha, 0 to 100 scale (0 no effect, 100 complete control)) | Plant response rating, Rice (rice; [5]) | Plant response rating, Rice (rice; 250 g ai/ha, scale 0 to 100) | Plant response rating, Rice (rice; 500 g ai/ha, scale 0 to 100) | Plant response rating, Rice (rice; 1000 g ai/ha, scale 0 to 100) | Plant response rating, Barnyardgrass (barnyardgrass [2]; [5]) | Plant response rating, Barnyardgrass (barnyardgrass [2]; 250 g ai/ha, scale 0 to 100) | Plant response rating, Barnyardgrass (barnyardgrass [2]; 500 g ai/ha, scale 0 to 100) | Plant response rating, Barnyardgrass (barnyardgrass [2]; 1000 g ai/ha, scale 0 to 100) | Plant response rating, Sedge, Umbrella (sedge, umbrella; [5]) | Plant response rating, Sedge, Umbrella (sedge, umbrella; 250 g ai/ha, scale 0 to 100) | Plant response rating, Sedge, Umbrella (sedge, umbrella; 500 g ai/ha, scale 0 to 100) | Plant response rating, Sedge, Umbrella (sedge, umbrella; 1000 g ai/ha, scale 0 to 100) | Plant response rating, Foxtail, Giant (giant foxtail; [3]) | Foxtail, Giant plant response rating (0 to 100 scale, 0 is no effect, 100 is complete control) (giant foxtail; Postemergence, 500 g ai/ha) | Foxtail, Giant plant response rating (giant foxtail; [4]) | Plant response rating, Foxtail, Giant (giant foxtail; preemergence, 500 g ai/ha) | Plant response rating, Kochia (kochia; [3]) | Kochia plant response rating (0 to 100 scale, 0 is no effect, 100 is complete control) (kochia; Postemergence, 500 g ai/ha) | Kochia plant response rating (kochia; [4]) | Plant response rating, Kochia (kochia; preemergence, 500 g ai/ha) | Plant response rating, Ragweed (ragweed; [3]) | Ragweed plant response rating (0 to 100 scale, 0 is no effect, 100 is complete control) (ragweed; Postemergence, 500 g ai/ha) | Ragweed plant response rating (ragweed; [4]) | Plant response rating, Ragweed (ragweed; preemergence, 500 g ai/ha) | Plant response rating, Ducksalad (ducksalad; [5]) | Plant response rating, Ducksalad (ducksalad; 250 g ai/ha, scale 0 to 100) | Plant response rating, Ducksalad (ducksalad; 500 g ai/ha, scale 0 to 100) | Plant response rating, Ducksalad (ducksalad; 1000 g ai/ha, scale 0 to 100) | Plant response rating, Wheat (wheat; [6]) | Wheat plant response rating (0 to 100 scale, 0 is no effect, 100 is complete control) (wheat; 500 g ai/ha) | Plant response rating, Corn (corn; [6]) | Plant response rating, Corn (corn; [7]) | Plant response rating, Galium (galium; [6]) | Galium plant response rating (0 to 100 scale, 0 is no effect, 100 is complete control) (galium; 500 g ai/ha) | Plant response rating, Blackgrass (blackgrass; [6]) | Plant response rating, Blackgrass (blackgrass; [7])

Reference: patent US10294202B2, “Pyrrolidinones as herbicides” (FMC Corporation, priority 2013, dated 2019)
